Reference: patent US20220378727A1 (priority 2021, published 2022)
“And” between values parts separate entries of the source, which are not always exact repeats. Identical values can stand only once. Like-named read-outs stand apart in the source and are kept apart here.

Tests used:
[1] = Dissolution study of fine particle dose in simulated lung fluid; format: physicochemical
Protocol: The dissolution profile of A2-TFN powders was investigated using a jacketed beaker which contained 100 mL of simulated lung fluid as dissolution medium. The preparation of simulated lung fluid was according to Marques et al. (SLF3 in the article). The temperature was maintained at 37° C. and the medium was stirred at 75 rpm with a magnetic bar. As fine particle dose (FPD, aerodynamic diameter<5 μm) is considered to be the fraction of powder that can deposit in the deep lung region, the FPD of A2-TFN formulation was collected by a Fast Screening Impactor (FSI, Copley Scientific, UK) coupled with Breezhaler® as described before for dissolution study. Approximately 8.5±0.5 mg of A2-TFN powder was dispersed by FSI to separate an FPD (which contained an estimated amount of 0.5 mg of tamibarotene). The powders were placed on a glass fiber filter paper which was then transferred into the jacketed beaker. At pre-determined time intervals, 1 mL of dissolution medium was withdrawn and filtered through 0.45-μm membrane filter. Equal volume of pre-warmed fresh medium was refilled immediately. The unformulated tamibarotene powder was included as control for comparison. The concentration of tamibarotene was quantified by HPLC as described above. The dissolution study was carried out in triplicate.

SARS-CoV-2 = experiment: Plaque reduction assay for antiviral EC50, Vero E6 cells; format: cell-based; settings: Severe acute respiratory syndrome coronavirus 2, Vero C1008
Protocol: Plaque reduction assay was performed to plot the 50% antiviral effective dose (EC50). Vero E6 cells were used for SARS-CoV-2 and MDCK cells for influenza A virus. Briefly, cells were seeded at 4×10^5 cells/well in 12-well tissue culture plates on the day before carrying out the assay. After 24 h of incubation, 50 p.f.u. of SARS-CoV-2 or H1N1 virus were added to the cell monolayer with or without the addition of drug compounds and the plates were further incubated for 1 h at 37° C. in 5% CO2 before removal of unbound viral particles by aspiration of the media and washing once with DMEM. Monolayers were then overlaid with media containing 1% low melting agarose (Cambrex Corporation, New Jersey, USA) in DMEM and appropriate concentrations of individual compound, inverted and incubated as above for another 72 h. The wells were then fixed with 10% formaldehyde (BDH, Merck, Darmstadt, Germany) overnight. After removal of the agarose plugs, the monolayers were stained with 0.7% crystal violet (BDH, Merck) and the plaques counted. The percentage of plaque inhibition relative to the control (i.e., without the addition of compound) wells were determined for each drug compound concentration. The EC50 was calculated using Sigma plot (SPSS) in an Excel add-in ED50V10. The plaque reduction assay experiments were performed in triplicate and repeated twice for confirmation.

H1N1 virus [2] = experiment: Plaque reduction assay for antiviral EC50, MDCK cells; format: cell-based; settings: Influenza A virus
influenza A H1N1 virus = experiment: In vivo prophylactic protection against H1N1 virus; set-up: species or system BALB/c mice; settings: for Lung histopathology (H&E) / Viral PA protein expression in lung (immunofluorescence): 3 d.p.i., data not shown; for Viral RNA load in lung tissues compared with PBS: day 3 post-challenge, 5 mg/kg i.t., one-way ANOVA; for Survival rate compared with PBS group: log-rank test, p<0.01
Protocol: BALB/c mice were used to investigate the in vivo activity of A2-TFN formulation against influenza A H1N1 virus. The mice were evaluated in divided into four groups (nine mice per group). Prior to virus inoculation, i.t. administration was performed under anesthesia in each group: (i) 20 μL of zanamivir solution (5 mg/mL); (ii) 50 μL of unformulated tamibarotene suspension (2 mg/mL); and (iii) 1 mg of A2-TFN powder. The dose of zanamivir or tamibarotene was 5 mg/kg per mouse. In the fourth group of mice, 50 μL of PBS was i.t. administered as negative control. At 2 h post administration, all the mice were i.n. inoculated with 20 μL of virus suspension containing 100 p.f.u. of HIN virus under anesthesia. Four mice in each group were euthanatized randomly on 3 d.p.i. and the lung tissues were harvested for viral load assay by qRT-PCR method. Animal survival, clinical symptoms and body weight were monitored for 14 days or until the humane endpoint (body weight loss more than 20%) was reached. The lung tissue histopathology of infected mice was examined by hematoxylin and eosin (H&E) and immunofluorescence staining. This experiment was conducted in two independent experiments (n=9 in each group).

H1N1 virus [3] = experiment: In vivo therapeutic effect against H1N1 virus, intranasal treatment; set-up: species or system BALB/c mice; settings: for Viral RNA load in lung compared with PBS group: 3 d.p.i., zanamivir 2 mg/kg i.n., one-way ANOVA; for Viral RNA load in lung compared with PBS group / Survival rate: tamibarotene 0.1 mg/kg; for Survival rate: 14 d.p.i., five i.n. doses from 4 h post 10 p.f.u. H1N1, zanamivir 2 mg/kg, n=7; for Survival rate compared with PBS group: Log-rank test, p<0.01
Protocol: To evaluate the therapeutic effect of tamibarotene formulation against H1N1 virus, BALB/c mice were i.n. inoculated with 20 μL of virus suspension containing 10 p.f.u. of H1N1 virus under anaesthesia. At 4 h post virus challenge, the first therapeutic dose was initiated and the mice were divided into four groups (11 mice per group) to receive 20 μL of each treatment via i.n. administration: (i) zanamivir solution (2 mg/mL); (ii) unformulated tamibarotene suspension (100 μg/mL); (iii) reconstituted A2-TFN solution (100 μg/mL); and (iv) PBS (as negative control). The dose of tamibarotene was 0.1 mg/kg, and the dose of zanamivir was 2 mg/kg. On day 1 and day 2 post-infection, the therapeutic doses were administered twice a day. On 3 d.p.i., four mice in each group were euthanatized randomly and the lung tissues were harvested for viral load assay by qRT-PCR method. Animal survival, clinical symptoms and body weight were monitored for 14 days or until the humane endpoint (body weight loss more than 20%) was reached. This experiment was conducted in two independent experiments (n=11 in each group).

[4] = plasma, i.p. drug suspension, 5 mg/kg tamibarotene, n=5
MERS-CoV = settings: from Yuan, et al., Nature Communications 2019, 10, 120; cited from earlier work
in vivo = settings: BALB/c, mouse, ip, 5 mg/kg; for AUC(0-t): AUC0-8 h; for AUC(0-inf): AUC0-∞—D; for MRT last: MRT0-8 h
[5] = Toxicity study in uninfected mice after intratracheal powder; format: in vivo, BALB/c mice; settings: 1 mg powder intratracheally
Protocol: HPBCD only powder was prepared according to the same protocol as A2-TFN but without the addition of tamibarotene and tert-butyl alcohol. One milligram of A2-TFN powder or HPBCD powder, or 50 μL of phosphate buffer saline (PBS) was intratracheally administered in healthy BALB/c mice under anesthesia.

[6] = lung, i.p. drug suspension, 5 mg/kg tamibarotene
[7] = plasma, i.p. drug suspension, 5 mg/kg tamibarotene

CC1(C)CCC(C)(C)c2cc(NC(=O)c3ccc(C(=O)O)cc3)ccc21 [tamibarotene]
Cumulative dissolved drug after 24 h compared with A2-TFN powder ([1]; Student's t-test, p<0.01): significantly lower
Drug dissolved ([1]; within the first hour, 37° C.): approximately 20%
EC50 (SARS-CoV-2): 5800 ± 1200 nM
EC50 (H1N1 virus [2]): 1680 ± 980 nM
Lung histopathology (H&E) (influenza A H1N1 virus): Severe alveolar damage and interstitial inflammatory infiltration
Viral PA protein expression in lung (immunofluorescence) (influenza A H1N1 virus): diminished but remained noticeable in bronchiolar epithelial cells
Viral RNA load in lung tissues compared with PBS (influenza A H1N1 virus): significantly lower
Survival rate compared with PBS group (influenza A H1N1 virus): significantly higher
Time by which all mice reached humane endpoint (influenza A H1N1 virus; single i.t. dose 5 mg/kg 2 h before 100 p.f.u. H1N1): < 9 d.p.i.
Viral RNA load in lung compared with PBS group (H1N1 virus [3]): significantly lower
Survival rate (H1N1 virus [3]): 71%
Survival rate compared with PBS group (H1N1 virus [3]): significantly higher
Cmax [4]: 14.2 ± 0.9 µM
EC50 (MERS-CoV): 320 ± 26 nM
Tmax (in vivo): 30 min
AUC(0-t) (in vivo; [6]): 2400 ± 300 ng·h/mL
AUC(0-t) (in vivo; [7]): 6000 ± 500 ng·h/mL
AUC(0-inf) (in vivo; [6]): 500 ± 60 ng·h/mL
AUC(0-inf) (in vivo; [7]): 1500 ± 200 ng·h/mL
Cmax (in vivo; Cmax, lung, i.p. drug suspension, 5 mg/kg tamibarotene, n=5): 7.4 µM and 2600 ng/mL
MRT last (in vivo; [6]): 36 ± 12 min
MRT last (in vivo; [7]): 90 ± 12 min
half-life (in vivo; T1/2, lung, i.p. drug suspension, 5 mg/kg tamibarotene): 30 ± 4.8 min
half-life (in vivo; T1/2, plasma, i.p. drug suspension, 5 mg/kg tamibarotene): 108 ± 24 min

2-hydroxypropyl-β-cyclodextrin [HPβCD]
Body weight of uninfected mice [5]: recovered more rapidly than A2-TFN group
Toxicity in lung histopathology of uninfected mice ([5]; data not shown): No marked toxicity

CC(=O)N[C@H]1[C@H]([C@H](O)[C@H](O)CO)OC(C(=O)O)=C[C@@H]1N=C(N)N [zanamivir]
Lung histopathology (H&E) (influenza A H1N1 virus): alleviated
Viral PA protein expression in lung (immunofluorescence) (influenza A H1N1 virus): diminished but remained noticeable in bronchiolar epithelial cells
Survival rate (influenza A H1N1 virus; 14 d.p.i., single i.t. dose 5 mg/kg 2 h before 100 p.f.u. H1N1, n=5): 60%
Viral RNA load in lung tissues compared with PBS (influenza A H1N1 virus): no significant difference
Survival rate compared with PBS group (influenza A H1N1 virus): significantly higher
Viral RNA load in lung compared with PBS group (H1N1 virus [3]): not been significantly different
Survival rate (H1N1 virus [3]): 86%
Survival rate compared with PBS group (H1N1 virus [3]): significantly higher
